How the values were obtained:
[1] = target: recombinant RORγ Ligand Binding Domain (LBD) protein (Homo sapiens (Human), UniProt P51449); test: Radio-Ligand RORγ Binding Assay (Assay 1); details: competition with 25-hydroxy [26,27-3H]-cholesterol, SPA; read-out: RORγ Binding Ki Range (nM) (Assay 1)
Method: Radio-Ligand RORγ Binding Assay (Assay 1)
Compounds of the present invention were tested for ability to bind to RORγ in a cell-free competition assay with commercially available radio-ligand (RL), 25-hydroxy [26,27-^3H]-cholesterol (PerkinElmer, Cat. # NET674250UC), for a ligand binding site on a recombinant RORγ Ligand Binding Domain (LBD) protein expressed as a 6×His-Glutathione-S-Transferase (GST) fusion. […] The plate was shaken at 700 rpm for 20 min and incubated for 10 min at rt, after which 40 μL of poly-Lys YSi SPA beads (PerkinElmer, Cat. # RPNQ0010) were added to achieve 50 μg of the beads per well. The plate was incubated on an orbital shaker for 20 min and then for 10 min without agitation at rt. SPA signal for tritium beta radiation was registered on PerkinElmer Microbeta plate reader. […] The percent inhibition vs. concentration data were fit into a four-parameter model, and IC50 values were calculated from the fit as the concentrations corresponding to the inflection points on the dose-response curves.

[2] = target: hERG potassium ion channel (Homo sapiens (Human), UniProt Q12809); test: hERG Assay (Assay 4); format: cell-based; details: HEK293 cells stably transfected with hERG cDNA, pH 7.4, compound at 3 μM, patch clamp, HEK 293 cells transfected with hERG
Method: Compounds of the invention were tested in vitro against the hERG (human ether-à-go-go-related gene) potassium ion channel (a surrogate for IKr, the rapidly activating delayed rectifier cardiac potassium ion channel).
The buffer was HEPES-buffered physiological saline (HB-PS) solution composed of: 137 mM NaCl, 4.0 mM KCl, 1.8 mM CaCl2, 1 mM MgCl2, 10 mM HEPES, 10 mM glucose, pH adjusted to 7.4 with NaOH, and 0.3% DMSO. Chemicals used in solution preparation were purchased from Sigma-Aldrich (St. Louis, Mo.), unless otherwise noted, and were of ACS reagent grade purity or higher.
HEK (human embryonic kidney) 293 cells were stably transfected with hERG cDNA.
For the patch clamp experiment, onset and steady state inhibition of hERG potassium current was measured using a pulse pattern with fixed amplitudes (depolarization: +20 mV for 2 s; repolarization: −50 mV for 2 s) repeated at 10 s intervals from a holding potential of −80 mV. Peak tail current was measured during the 2 s step to −50 mV. A steady state was maintained for at least 30 seconds before applying compound or positive control (cisapride). Peak tail currents were measured until a new steady state was achieved.
Data acquisition and analyses were performed using the suite of pCLAMP® (ver. 8.2) programs (MDS Analytical Technologies, Sunnyvale, Calif.). Steady state was defined by the limiting constant rate of change with time (linear time dependence). The steady state before and after each compound application was used to calculate the percentage of current inhibited at each concentration.
Concentration-response data were fit to an equation of the following form: % Inhibition={1−1/[1+([Test]/IC50)N]}*100
where [Test] was the compound concentration, IC50 was the compound concentration at half-maximal inhibition, N was the Hill coefficient, and % Inhibition was the percentage of current inhibited at each compound concentration. Nonlinear least squares fits were solved with the Solver add-in for Excel 2003 (Microsoft, WA) and the IC50 was calculated.

[3] = target: full-length RORγt in Jurkat cells (Homo sapiens (Human), UniProt P51449); test: RORγt 5×RORE Assay in Jurkat Cells (Assay 2); format: cell-based; details: 5×RORE Nanoluc luciferase reporter, read-out: RORγt5X IC50 Range (nM) (Assay 2)
Method: [formula] RORγt 5×RORE Assay in Jurkat Cells (Assay 2)
Compounds of the present invention were tested for RORγ inverse agonist activity in a cell-based, transcriptional activity assay. […] (Promega, Cat. # N1021) using KpnI and HindIII restriction sites. […] Tested compounds were added to the cells in the same media (final concentration of DMSO was 0.1% (v/v)), and the plates were incubated at 37° C./5% CO2 for 16-18 hr. Luciferase activity in the conditioned supernatants was determined with NanoGlo® assay reagents (Promega, Cat.# N1130).

[4] = tested on: IL-17A production in human whole blood; test: Human Whole Blood Assay (Assay 3); format: cell-based; details: IL-17A secretion, CytoStim activation, 48 h, 50% blood/media
Method: Human Whole Blood Assay (Assay 3)
Compounds of the invention were tested in the human whole blood assay to measure their effects on IL-17A production as determined by cytokine secretion into 50% blood/media supernatant. Mixtures of sodium heparinized whole blood (isolated from healthy human donors) and the T cell activator CytoStim, in the presence or absence of compound, were plated in sterilized, tissue culture-treated 24-well plates. […]
Mixtures were incubated at 37° C./5% CO2 for 48 h, after which, 200 μL of clean supernatant (i.e., no red blood cells) from each well was transferred to a well in a 96-well plate. IL-17A cytokine expression was determined using 25 μL of the transferred supernatant diluted with 25 μL of Diluent 43 from the Human IL-17A V-PLEX™ kit (cat. # K151RFD-4, Meso Scale Discovery, Rockville, Md.). […] The IL-17A V-PLEX™ plates were read using the Meso Scale Discovery Imager (Model 1200). The levels of IL-17A were extrapolated from a standard curve using a four-parameter non-linear fitting model and expressed as pg/mL. […]

recombinant RORγ Ligand Binding Domain (LBD) protein, sequence (P51449 269-508): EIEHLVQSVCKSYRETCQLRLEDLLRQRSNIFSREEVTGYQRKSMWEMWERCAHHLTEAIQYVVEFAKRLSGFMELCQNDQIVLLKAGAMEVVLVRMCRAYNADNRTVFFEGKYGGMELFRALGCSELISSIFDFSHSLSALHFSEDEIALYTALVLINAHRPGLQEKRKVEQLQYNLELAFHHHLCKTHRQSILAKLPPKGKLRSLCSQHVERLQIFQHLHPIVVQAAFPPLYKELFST
hERG potassium ion channel, sequence (Q12809 whole entry): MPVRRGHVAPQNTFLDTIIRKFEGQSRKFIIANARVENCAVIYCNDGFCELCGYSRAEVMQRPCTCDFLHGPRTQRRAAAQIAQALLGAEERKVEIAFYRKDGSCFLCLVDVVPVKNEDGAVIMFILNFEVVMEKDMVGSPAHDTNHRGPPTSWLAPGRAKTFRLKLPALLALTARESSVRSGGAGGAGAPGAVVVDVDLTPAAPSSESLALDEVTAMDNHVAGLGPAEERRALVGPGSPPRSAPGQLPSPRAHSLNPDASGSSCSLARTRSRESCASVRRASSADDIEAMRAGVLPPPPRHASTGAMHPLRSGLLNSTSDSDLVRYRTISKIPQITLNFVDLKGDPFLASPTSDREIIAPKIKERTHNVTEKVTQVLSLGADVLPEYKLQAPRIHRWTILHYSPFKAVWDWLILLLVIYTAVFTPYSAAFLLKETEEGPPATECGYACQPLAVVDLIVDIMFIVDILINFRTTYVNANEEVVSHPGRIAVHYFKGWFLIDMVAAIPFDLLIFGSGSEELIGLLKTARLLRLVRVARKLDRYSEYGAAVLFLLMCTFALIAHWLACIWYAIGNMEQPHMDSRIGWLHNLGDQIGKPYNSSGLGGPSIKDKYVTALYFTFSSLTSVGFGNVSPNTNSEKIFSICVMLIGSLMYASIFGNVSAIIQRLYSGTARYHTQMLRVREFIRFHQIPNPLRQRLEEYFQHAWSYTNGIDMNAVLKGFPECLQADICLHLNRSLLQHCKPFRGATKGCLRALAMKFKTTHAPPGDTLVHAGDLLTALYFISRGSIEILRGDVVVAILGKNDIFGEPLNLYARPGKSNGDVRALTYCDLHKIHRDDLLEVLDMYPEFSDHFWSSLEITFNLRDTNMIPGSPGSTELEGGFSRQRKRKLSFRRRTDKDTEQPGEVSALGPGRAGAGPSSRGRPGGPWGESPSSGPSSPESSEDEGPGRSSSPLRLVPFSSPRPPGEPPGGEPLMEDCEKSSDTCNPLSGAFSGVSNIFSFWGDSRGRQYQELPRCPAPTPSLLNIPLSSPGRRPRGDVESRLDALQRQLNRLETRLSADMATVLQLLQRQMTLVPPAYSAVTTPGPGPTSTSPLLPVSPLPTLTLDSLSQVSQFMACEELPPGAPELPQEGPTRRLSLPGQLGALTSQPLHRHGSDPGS
full-length RORγt in Jurkat cells, sequence (P51449 other isoform, or with tags, fused parts or gaps): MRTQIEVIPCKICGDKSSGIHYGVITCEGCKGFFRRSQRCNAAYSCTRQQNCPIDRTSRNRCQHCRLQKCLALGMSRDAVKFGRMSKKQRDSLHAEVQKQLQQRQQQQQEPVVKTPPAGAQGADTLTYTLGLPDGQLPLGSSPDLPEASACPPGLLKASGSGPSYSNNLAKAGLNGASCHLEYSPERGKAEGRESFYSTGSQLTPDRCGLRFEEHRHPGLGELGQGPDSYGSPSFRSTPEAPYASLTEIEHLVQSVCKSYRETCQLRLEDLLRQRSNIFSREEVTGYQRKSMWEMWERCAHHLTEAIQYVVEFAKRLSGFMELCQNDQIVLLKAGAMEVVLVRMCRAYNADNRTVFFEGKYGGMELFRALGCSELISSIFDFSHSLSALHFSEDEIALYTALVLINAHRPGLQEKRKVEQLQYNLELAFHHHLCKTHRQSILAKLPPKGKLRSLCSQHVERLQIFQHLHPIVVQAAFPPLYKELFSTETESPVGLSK

CCS(=O)(=O)c1ccc(CNC(=O)c2cnc3c(c2)CN(C[C@H]2CC[C@H](C(F)(F)F)CC2)[C@H]3C(C)C)cc1
inhibition at 3 µM [2]: 57%

CCS(=O)(=O)c1ccc([C@@H](COC(N)=O)NC(=O)c2cnc3c(c2)CN(C[C@H]2CC[C@H](C(F)(F)F)CC2)[C@H]3C(C)C)cc1 [Compound 12]
Ki [1]: < 100 nM
IC50 [3]: < 100 nM
inhibition at 3 µM [2]: 38.8%

CC[C@H]1c2ncc(C(=O)N[C@@H](COC)c3ccc(S(=O)(=O)CC)cc3)cc2CN1C[C@@H]1CC[C@H](C(F)(F)F)OC1 (single isomer, unassigned) [Compound 5]
Ki [1]: < 100 nM
IC50 [3]: > 1000 nM

CC[C@H]1c2ncc(C(=O)N[C@@H](COC)c3ccc(S(=O)(=O)CC)cc3)cc2CN1C[C@H]1CC[C@H](C(F)(F)F)OC1 (single isomer, unassigned) [Compound 3]
Ki [1]: < 100 nM
IC50 [3]: < 100 nM
inhibition at 3 µM [2]: 24.3%

CCS(=O)(=O)c1ccc([C@H](COC(N)=O)NC(=O)c2cnc3c(c2)CN(C[C@H]2CC[C@@H](C(F)(F)F)CC2)[C@H]3C(C)C)cc1 [Compound 11]
Ki [1]: < 100 nM
IC50 [3]: > 1000 nM

CCS(=O)(=O)c1ccc([C@H](COC(N)=O)NC(=O)c2cnc3c(c2)CN(C[C@H]2CC[C@H](C(F)(F)F)CC2)[C@H]3C(C)C)nc1 [Compound 10]
Ki [1]: < 100 nM
IC50 [3]: < 100 nM

CC[C@H]1c2ncc(C(=O)N[C@@H](COC(N)=O)c3ccc(S(=O)(=O)CC)cc3)cc2CN1C[C@H]1CC[C@H](C(F)(F)F)CC1 [Compound 2, (R)-2-((S)-7-ethyl-6-((trans-4-(trifluoromethyl)cyclohexyl)methyl)-6,7-dihydro-5H-pyrrolo[3,4-b]pyridine-3-carboxamido)-2-(4-(ethylsulfonyl)phenyl)ethyl carbamate]
inhibition at 3 µM [2]: 38.8%

CCS(=O)(=O)c1ccc([C@H](COC)NC(=O)c2cnc3c(c2)CN(C[C@H]2CC[C@H](C(F)(F)F)CC2)[C@H]3C(C)C)cc1 [Compound 15]
Ki [1]: < 100 nM
IC50 [3]: < 100 nM
inhibition at 3 µM [2]: 50%

CCS(=O)(=O)c1ccc([C@H](COCC(=O)O)NC(=O)c2cnc3c(c2)CN(C[C@H]2CC[C@H](C(F)(F)F)CC2)[C@H]3C(C)C)cc1 [Compound 14]
Ki [1]: < 100 nM
IC50 [3]: 100 to 1000 nM

CC[C@H]1c2ncc(C(=O)N[C@@H](COC)c3ccc(S(=O)(=O)CC)cc3)cc2CN1C[C@@H]1CC[C@@H](C(F)(F)F)OC1 (single isomer, unassigned) [Compound 4]
Ki [1]: < 100 nM
IC50 [3]: < 100 nM

CCS(=O)(=O)c1ccc(CNC(=O)c2cnc3c(c2)CN(C[C@H]2CC[C@H](C(F)(F)F)CC2)[C@H]3C(C)C)nc1
inhibition at 3 µM [2]: 45.4%

CCS(=O)(=O)c1ccc([C@@H](COC(N)=O)NC(=O)c2cnc3c(c2)CN(C[C@H]2CC[C@@H](C(F)(F)F)CC2)[C@H]3C(C)C)nc1 [Compound 9]
Ki [1]: < 100 nM
IC50 [3]: > 1000 nM

CCS(=O)(=O)c1ccc([C@H](COC)NC(=O)c2cnc3c(c2)CN(C[C@H]2CC[C@@H](C(F)(F)F)CC2)[C@H]3C(C)C)cc1 [Compound 8]
Ki [1]: < 100 nM
IC50 [3]: > 1000 nM

CC[C@H]1c2ncc(C(=O)N[C@@H](COC)c3ccc(S(=O)(=O)CC)cc3)cc2CN1C[C@H]1CC[C@@H](C(F)(F)F)OC1 (single isomer, unassigned) [Compound 6]
Ki [1]: < 100 nM
IC50 [3]: > 1000 nM

CC[C@H]1c2ncc(C(=O)N[C@@H](COC)c3ccc(S(=O)(=O)CC)cc3)cc2CN1C[C@H]1CC[C@H](C(F)(F)F)CC1 [Compound 1, (S)-7-ethyl-N—((R)-1-(4-(ethylsulfonyl)phenyl)-2-methoxyethyl)-6-((trans-4-(trifluoromethyl)cyclohexyl)methyl)-6,7-dihydro-5H-pyrrolo[3,4-b]pyridine-3-carboxamide]
Ki [1]: < 100 nM
IC50 [3]: < 100 nM
IC50 [4]: < 100 nM
inhibition at 3 µM [2]: 24.3%
